Reference: US20260167608A1, “CRYSTALLINE FORMS OF 4-(7-HYDROXY-2-ISOPROPYL-4-OXO-4H-QUINAZOLIN-3-YL)-BENZONITRILE AND FORMULATIONS THEREOF” (Bausch + Lomb Ireland Limited, priority 2019, published 2026)
≈ marks a conversion by molar mass, not a printed value.

Key:
[1] = Pharmacokinetic study of exploratory formulations, single bilateral topical ocular dosing; assay type: in vivo, rabbit; settings: male NZW rabbits
Method: A pharmacokinetics study was conducted to determine the ocular uptake of compound I following single bilateral topical ocular dosing of male NZW rabbits with the same four exploratory formulations provided in Table 13: FID 12152, FID 121511, FID 121512, FID 121513.

[2] = Exploratory formulation stability at room temperature and 40° C. (UPLC assay); assay type: physicochemical; settings: part of compound I in solution in the supernatant; after 12 weeks at 40° C.
Method: Based on the limited solubility of compound I in various solvents and in water, a suspension formulation was explored for development. The following five formulations were prepared and tested for stability. Formulations were stored in crimp-sealed glass vials at room temperature and at 40° C. At 6, 8 and 12 weeks, samples were evaluated for compound I stability.
The formulations prepared in Table 13 were assayed using an exploratory UPLC method developed for the assay of compound I as shown in Table 14.
Results from the testing for compound I stability at room temperature and 40° C. are shown in FIG. 14A and FIG. 14B, respectively. […] In contrast, the part of compound I in solution in the supernatant degrades to about 20% of initial amount after 12 weeks at 40° C.

[3] = Equilibration with solvent at 25° C., solid investigated by XRPD; assay type: physicochemical; set-up: key to XRPD change after equilibration: “−”: no change detected; “+”: change detected; “//”: not carried out because substance too soluble in the solvent
Method: Equilibration with Solvent at 25° C.
For equilibration at 25° C., about 50 mg of compound I was equilibrated with 1 ml solvent for 24 h in a water bath at 25° C.±0.1. The solutions were filtered and dried for 10 minutes in the air. The solid part was investigated by XRPD (X-ray powder diffraction). If differences were observed additional investigations were performed as appropriate (e.g. DSC, TG, IR, SEM).
The X-ray powder diffraction (XRPD) patterns described herein were recorded on a Bruker D8 Advance diffractometer using CuKα radiation. The XRPD pattern was recorded between 2° and 40° (2-theta).

[4] = Solubility of crystal form E at 25° C., analysis by HPLC; assay type: physicochemical; settings: thermodynamic from solid
Method: Solubility of crystal form E was measured at 25° C.

[5] = Intrinsic dissolution rate at 37° C.; assay type: physicochemical
[6] = Hygroscopicity (water uptake) of crystal form E; assay type: physicochemical
Method: The maximum water uptake is less than 0.1% at 25° C. up to 92% relative humidity.

[7] = Conversion of crystal form C in 1:1 mixtures with other crystal forms in solvent; assay type: physicochemical
[8] = equilibration at 25° C., solvent t-butylmethylether

Structure (SMILES): CC(C)c1nc2cc(O)ccc2c(=O)n1-c1ccc(C#N)cc1 [compound I, 4-(7-hydroxy-2-isopropyl-4-oxo-4H-quinazolin-3-yl)-benzonitrile]
- exposure in the cornea, times the levels in plasma [1]: approximately 500 times
- exposure in the cornea, times the levels in the aqueous humor and iris-ciliary body [1]: approximately 10 times
- compound I remaining, of initial amount [2]: about 20%

Structure (SMILES): CC(C)c1nc2cc(O)ccc2c(=O)n1-c1ccc(C#N)cc1 [Crystal form E, 4-(7-Hydroxy-2-isopropyl-4-oxo-4H-quinazolin-3-yl)-benzonitrile]
- Comments ([3]; equilibration at 25° C., solvent Acetone): too soluble
- XRPD change after equilibration ([3]; equilibration at 25° C., solvent Cyclohexane): −
- XRPD change after equilibration ([3]; equilibration at 25° C., solvent Ethanol abs.): −
- XRPD change after equilibration ([3]; equilibration at 25° C., solvent Ethyl acetate): −
- XRPD change after equilibration ([3]; equilibration at 25° C., solvent Water): −
- Comments [3, 8]: amorphous
- XRPD change after equilibration [3, 8]: +
- Comments ([3]; form E mixed with form B, equilibration at 25 degree C., solvent Ethanol abs.): converts into crystal form B
- solubility ([4]; acetate buffer pH 4.5, 25 °C, aqueous buffer, Buffer pH 4.5 (acetate)): 10 µg/mL (≈ 32.8 µM)
- solubility ([4]; buffer pH 1 (0.1 N HCl), 25 °C, pH 1, simulated gastric fluid): 345 µg/mL (≈ 1130 µM)
- solubility ([4]; phosphate buffer pH 6.88, 25 °C, aqueous buffer, Buffer pH 6.88 (phosphate)): 11 µg/mL (≈ 36 µM)
- Intrinsic dissolution rate (IDR) at 37° C. ([5]; HCl 0.1 N): 0.0194 mg min^−1 cm^−2
- Intrinsic dissolution rate (IDR) at 37° C. ([5]; pH 3): 0.0025 mg min^−1 cm^−2
- hygroscopicity [6]: non-hygroscopic
- maximum water uptake ([6]; at 25° C. up to 92% relative humidity): less than 0.1%

Structure (SMILES): CC(C)c1nc2cc(O)ccc2c(=O)n1-c1ccc(C#N)cc1 [Crystal form C, 4-(7-Hydroxy-2-isopropyl-4-oxo-4H-quinazolin-3-yl)-benzonitrile]
- conversion of crystal form ([7]; 1:1 mixture with crystal form A, in methanol): converted in methanol to Solvate SB (crystal form G)
- conversion of crystal form ([7]; 1:1 mixture with crystal form B, in isopropanol): converted in isopropanol to crystal form B
